From patent US6284787A, “Use of R-(+)-α-lipoic acid, R-(-)-dihydrolipoic acid and metabolites in the form of the free acid or as salts or esters or amides for the preparation of drugs for the treatment of diabetes mellitus as well as of its sequelae” (Asta Medica Aktiengesellschaft, priority 1993, dated 2001)

How the values were obtained:
rat diaphragms = conditions: in vitro, cited from earlier work
alloxan-induced diabetes = conditions: animal model; cited from earlier work
pyruvate dehydrogenase = biological target: T1, pyruvate dehydrogenase (Rattus norvegicus, UniProt P08461+P26284+P49432+Q6P6R2); experiment: Pyruvate dehydrogenase activity after chronic administration in tissues of the spontaneously diabetic rat; type: in vivo; conditions: for Pyruvate dehydrogenase activity, trend: spontaneously diabetic rats, 50 mg/kg daily in tail vein, heart muscle, trend after two administrations
T1 construct: The tissue was homogenized; from tissue; host or cells: heart muscle of spontaneously diabetic BB rats
T1 sequence (P26284 30-390): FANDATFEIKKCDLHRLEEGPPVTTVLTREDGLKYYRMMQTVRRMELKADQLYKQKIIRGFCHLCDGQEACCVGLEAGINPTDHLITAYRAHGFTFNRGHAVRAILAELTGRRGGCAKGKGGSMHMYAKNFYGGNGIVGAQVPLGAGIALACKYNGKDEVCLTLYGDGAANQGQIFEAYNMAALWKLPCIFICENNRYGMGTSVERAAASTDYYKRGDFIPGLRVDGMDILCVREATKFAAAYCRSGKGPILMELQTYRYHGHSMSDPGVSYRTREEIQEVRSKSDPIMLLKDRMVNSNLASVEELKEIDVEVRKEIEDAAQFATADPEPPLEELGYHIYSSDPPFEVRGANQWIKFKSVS
T1 sequence (P49432 31-359): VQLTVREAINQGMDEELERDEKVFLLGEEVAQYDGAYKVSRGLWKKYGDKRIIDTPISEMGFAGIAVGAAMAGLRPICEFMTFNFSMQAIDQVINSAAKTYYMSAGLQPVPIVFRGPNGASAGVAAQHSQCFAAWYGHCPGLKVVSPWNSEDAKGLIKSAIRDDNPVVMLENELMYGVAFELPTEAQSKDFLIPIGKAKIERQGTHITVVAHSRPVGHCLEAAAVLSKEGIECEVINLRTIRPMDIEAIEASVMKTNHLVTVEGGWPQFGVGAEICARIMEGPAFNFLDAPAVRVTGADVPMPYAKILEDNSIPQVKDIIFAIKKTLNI
T1 sequence (P08461 86-632 limits assumed): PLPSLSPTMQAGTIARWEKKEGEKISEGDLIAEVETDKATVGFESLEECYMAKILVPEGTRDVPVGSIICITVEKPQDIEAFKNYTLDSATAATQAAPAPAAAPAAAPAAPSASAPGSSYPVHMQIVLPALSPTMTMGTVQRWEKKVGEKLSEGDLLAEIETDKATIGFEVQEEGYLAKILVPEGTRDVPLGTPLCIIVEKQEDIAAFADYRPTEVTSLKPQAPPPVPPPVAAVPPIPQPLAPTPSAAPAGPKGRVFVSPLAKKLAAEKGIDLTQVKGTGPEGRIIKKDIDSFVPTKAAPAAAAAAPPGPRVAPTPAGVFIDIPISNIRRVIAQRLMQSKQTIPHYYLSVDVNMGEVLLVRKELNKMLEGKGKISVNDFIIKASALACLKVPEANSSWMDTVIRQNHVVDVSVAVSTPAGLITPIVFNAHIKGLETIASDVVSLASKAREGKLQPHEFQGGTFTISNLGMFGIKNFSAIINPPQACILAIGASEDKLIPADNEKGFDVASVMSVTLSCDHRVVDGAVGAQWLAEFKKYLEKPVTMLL
T1 sequence (Q6P6R2 36-509): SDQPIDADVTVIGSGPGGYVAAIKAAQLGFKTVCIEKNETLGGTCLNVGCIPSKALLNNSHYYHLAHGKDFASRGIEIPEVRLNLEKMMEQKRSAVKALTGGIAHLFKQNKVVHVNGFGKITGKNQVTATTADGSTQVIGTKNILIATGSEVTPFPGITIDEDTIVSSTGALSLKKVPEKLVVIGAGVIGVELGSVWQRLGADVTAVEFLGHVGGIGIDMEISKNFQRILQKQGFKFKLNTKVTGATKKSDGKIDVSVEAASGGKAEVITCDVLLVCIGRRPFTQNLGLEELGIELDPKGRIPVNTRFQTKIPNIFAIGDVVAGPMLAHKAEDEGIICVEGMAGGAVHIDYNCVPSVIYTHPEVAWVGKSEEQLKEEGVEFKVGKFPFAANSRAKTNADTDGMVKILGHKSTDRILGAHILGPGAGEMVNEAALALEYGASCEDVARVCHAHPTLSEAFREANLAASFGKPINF
Method: After the manifestation of the diabetes, spontaneously diabetic rats (BB-Wol BB, of the Moellegard Company, Denmark, n=10/group) received 0.3 mL of neutral 0.12 M (corresponding to 50 mg/kg of body weight) R-(+)-α-lipoic acid or S-(-)-α-lipoic acid daily, administered in the vein of the tail. A control group received physiological salt solution. After 7 days, the animals were sacrificed. The pyruvate dehydrogenase activity was determined in the heart muscle. The tissue was homogenized.
Pyruvate+NAD^+ +CoA→Acetyl-CoA+CO2 +NADH+H^+
The extinction of the reduced coenzyme is measured at 339 nm in cuvettes with a Shimadzu UV 210 Detector at 37° C. The isolation of the enzyme complex (R. Koeplin, Ph.D. Thesis, University of Tuebingen, FRG, 1988, C. J. Stanley, R. N. Perham, Biochem. J. 191, 147-154, 1980) and the enzyme assay (O. H. Lowry et al. J. Biol. Chem. 256, 815-822, 1951) were carried out as described. The protein was measured by the method of Loary (N. Bashan et al., Am. J. Physiol. m262 (Cell Physiol. 31): C682-690, 1992).

[1] = system: streptozotocin-induced diabetes; experiment: Diabetes induced tissue damage, streptozotocin-induced diabetes; type: in vivo, Wistar rats; conditions: for mortality in comparison to the control / pathologically changed parameter glycosilated hemoglobin, in words / pathologically changed parameter protein oxidation, in words: streptozotocin-induced diabetes; for % Glycosilated Hemoglobin: 1.65 g/kg of food for 14 weeks, streptozotocin diabetic rats, control 9.7 ± 1.5
Method: Thioct acid enantiomers were administered for 14 weeks by mouth, together with the food (1.65 g/kg of food), to female Wistar rats (n=3 to 6/group) in separate groups.
In the eighth week, streptozotocin diabetes was induced in the animals. Six weeks after the induction of the diabetes, the surviving animals were sacrificed. Tissue was taken and analyzed.

L6 myotubes = experiment: Glucose assimilation in muscle cells (3H-2-desoxyglucose uptake); type: cell-based; conditions: for effect on glucose assimilation together with insulin, in words: 2.5 mM with insulin 200 nM; for effect on glucose assimilation, in words: compared with other enantiomer or insulin (200 nM); for Glucose Assimilation R / Glucose Assimilation S: table 1; for Glucose Assimilation Insulin: insulin 200 nM
Method: The tissue muscle cells (L6 myotubes) were prepared in 24-bole plates and differentiated. After incubation with the test substances, an assay was carried out to determine hexose assimilation (^3 H-2-desoxyglucose, 10 μM, 10 minutes). […] After the cells were washed and then lysed with NaOH, the radioactivity absorbed was measured in a counter. Parallel experimental batches were carried out with cytochalasin-B, in order to determine the glucose transporter-dependent glucose translocations.
The results can be expressed as pmol/min×mg of protein.

GLUT4 = experiment: Cellular content of GLUT4 glucose transporters in L6 myotubes; type: cell-based; conditions: for Content of GLUT4: 2.5 mM, 4 hours of incubation, control 1.00; for cellular content of GLUT4, in words: after four hours of incubation
Method: (§1) L6 myotubes were incubated for 4 hours with 2.5 mM lipoic acid enantiomers in an MEM medium with 2% fetal bovine serum and 5 mM glucose. The glucose transporters were detected as described above. The membrane fraction is obtained after a single centrifugation at 210,000 g.

[2] = system: GLUT1 Glucose Transporters; experiment: Translocation of GLUT1 glucose transporters in L6 myotubes (Western blot of cell fractions); type: cell-based; conditions: for GLUT1 translocation, Light Microsomal Fraction / GLUT1 translocation, Plasma Membrane: one hour, control 1.00
Method: (§2) L6 myotubes in 15 cm dishes (n=4 to 5) were enlisted and incubated for one hour with 2.5 mM lipoate in MEM with 5 mM of glucose and 2% of fetal bovine serum. The cells were removed, homogenized and worked up in fractions (4° C.). The working up was carried out in an HEPES buffer with a defined addition of protease inhibitor. The cell fractions were obtained in 6 defined centrifuging steps. The fractions were added to a 10% polyacrylamide gel for a Western Blot analysis. The glucose transporters were determined with anti-GLUT1 and anti-GLUT4 antibodies using iodine-labeled protein A and autoradiographic detection.

GLUT 4 = experiment: Translocation of GLUT4 glucose transporters in L6 myotubes; type: cell-based
Method: as §2

GLUT1 = experiment: Cellular content of GLUT1 glucose transporters in L6 myotubes; type: cell-based; conditions: for Content of GLUT1: L6 myotubes, 2.5 mM, 4 hours of incubation, control 1.00; for cellular content of GLUT1, in words: after four hours of incubation
Method: as §1

| Compound | Pyruvate dehydrogenase activity, trend (pyruvate dehydrogenase) | mortality in comparison to the control [1] | pathologically changed parameter glycosilated hemoglobin, in words [1] | pathologically changed parameter protein oxidation, in words [1] | % Glycosilated Hemoglobin ([1]; table 7) [%] | % Glycosilated Hemoglobin ([1]; table 8) [%] | % Glycosilated Hemoglobin ([1]; table 9) [%] | effect on glucose assimilation together with insulin, in words (L6 myotubes) | effect on glucose assimilation, in words (L6 myotubes; 2.5 mM) | Content of GLUT4 (GLUT4; L6 myotubes) [arbitrary units] | cellular content of GLUT4, in words (GLUT4) | translocation of glucose transporters Glut 1 from the cytosol to the plasma membrane, in words [2] | GLUT1 translocation, Light Microsomal Fraction ([2]; table 4, enantiomers 2.5 mM) [relative units] | GLUT1 translocation, Plasma Membrane ([2]; table 4, enantiomers 2.5 mM) [relative units] | GLUT1 translocation, Light Microsomal Fraction ([2]; table 5, enantiomers 2.5 mM) [relative units] | translocation of glucose transporters GLUT 4 from the cytosol to the plasma membrane, in words (GLUT 4) | Content of GLUT1 (GLUT1) [arbitrary units] | cellular content of GLUT1, in words (GLUT1) | also measured |
| --- | --- | --- | --- | --- | --- | --- | --- | --- | --- | --- | --- | --- | --- | --- | --- | --- | --- | --- | --- |
| O=C(O)CCCCC1CCSS1 (racemic) [R,S-(+,-)-α-lipoic acid] |  |  |  |  |  |  |  |  |  |  |  |  |  |  |  |  |  |  | effect relative to that of insulin (rat diaphragms; Haugaard): additive; glucose assimilation by muscles (rat diaphragms; racemate from Calbiochem): increases; effect on blood sugar (alloxan-induced diabetes): blood sugar-lowering effect |
| O=C(O)CCCC[C@@H]1CCSS1 [R-(+)-α-lipoic acid] | increased | reduced | corrects | corrects | 8.4 ± 1.3 | 8.4 ± 1.3 | 8.4 ± 1.3 | not additive | comparable to that of insulin | 1.55 ± 0.24 | increases | stimulates | 0.46 ± 0.06 | 1.56 ± 0.25 | 0.46 ± 0.06 | stimulates | 1.81 ± 0.01 | increases | stimulation of glucose assimilation compared to the S enantiomer, factor (L6 myotubes; 2.5 mM): greater than 2; Glucose Assimilation R (L6 myotubes; 2.5 mM, incubation time 15): 16.7 ± 0.6 pmol/mg/min; Glucose Assimilation R (L6 myotubes; 2.5 mM, incubation time 30): 15.9 ± 0.9 pmol/mg/min; Glucose Assimilation R (L6 myotubes; 2.5 mM, incubation time 60): 26.1 ± 0.9 pmol/mg/min; Glucose Assimilation R (L6 myotubes; 2.5 mM, incubation time 120): 27.0 ± 0.4 pmol/mg/min; Glucose Assimilation R-(+)-α-Liponic Acid (L6 myotubes; table 2, 2.5 mM, incubation 15 min): 23.2 ± 0.5 pmol/mg/min; Glucose Assimilation R-(+)-α-Liponic Acid (L6 myotubes; table 2, 2.5 mM, incubation 30 min): 21.1 ± 0.4 pmol/mg/min; Glucose Assimilation R-(+)-α-Liponic Acid (L6 myotubes; table 2, 2.5 mM, incubation 60 min): 25.7 ± 0.5 pmol/mg/min |
| O=C(O)CCCC[C@H]1CCSS1 [S-(-)-α-lipoic acid, reference compound] | Lowered | increased | lesser effect to no effect | lesser effect to no effect | 10.7 ± 2.1 | 10.7 ± 2.1 | 10.7 ± 2.1 | decreases the effect of insulin | less effective | 0.79 ± 0.47 | has no effect or lowers the cellular content | has no effect or has an inhibiting effect | 0.38 ± 0.09 | 0.93 ± 0.37 | 0.38 ± 0.09 | has no effect or has an inhibiting effect | 1.08 ± 0.01 | has no effect or lowers the cellular content | pyruvate dehydrogenase, effect in animal experiments (pyruvate dehydrogenase; animal experiments): inhibited; Glucose Assimilation S (L6 myotubes; 2.5 mM, incubation time 15): 16.3 ± 0.3 pmol/mg/min; Glucose Assimilation S (L6 myotubes; 2.5 mM, incubation time 30): 14.8 ± 0.7 pmol/mg/min; Glucose Assimilation S (L6 myotubes; 2.5 mM, incubation time 60): 21.6 ± 0.4 pmol/mg/min; Glucose Assimilation S (L6 myotubes; 2.5 mM, incubation time 120): 20.5 ± 0.8 pmol/mg/min; Glucose Assimilation S-(-)α-Liponic Acid (L6 myotubes; table 3, 2.5 mM, incubation 15 min): 14.8 ± 0.4 pmol/mg/min; Glucose Assimilation S-(-)α-Liponic Acid (L6 myotubes; table 3, 2.5 mM, incubation 30 min): 13.3 ± 0.4 pmol/mg/min; Glucose Assimilation S-(-)α-Liponic Acid (L6 myotubes; table 3, 2.5 mM, incubation 60 min): 16.0 ± 0.2 pmol/mg/min; total content of glucose transporters in the cell (GLUT4), in words (GLUT4; translocation experiment, L6 myotubes): appears to lower |
| Insulin: Insulin, added at a concentration of 200 nM |  |  |  |  |  |  |  |  |  |  |  | stimulates |  | 1.07 ± 0.14 |  | stimulates |  |  | Glucose Assimilation Insulin (L6 myotubes; table 2, incubation 15 min): 24.7 ± 0.9 pmol/mg/min; Glucose Assimilation Insulin (L6 myotubes; table 2, incubation 30 min): 21.6 ± 0.4 pmol/mg/min; Glucose Assimilation Insulin (L6 myotubes; table 2, incubation 60 min): 23.7 ± 0.5 pmol/mg/min; Glucose Assimilation Insulin (L6 myotubes; table 3, incubation 15 min): 17.7 ± 0.3 pmol/mg/min; Glucose Assimilation Insulin (L6 myotubes; table 3, incubation 30 min): 16.3 ± 0.5 pmol/mg/min; Glucose Assimilation Insulin (L6 myotubes; table 3, incubation 60 min): 22.3 ± 0.5 pmol/mg/min; GLUT1 translocation, Plasma Membrane ([2]; table 5, enantiomers 2.5 mM): 1.07 ± 0.14 relative units |
